From patent publication US11701372B2, “Inhalation formulations of 1'-cyano substituted carba-nucleoside analogs” (priority 2020, dated 2023)
Like-named read-outs stand apart in the source and are kept apart here.

What was measured:
[1] = type: physicochemical; conditions: for % assay/degs / Total degs / pH: T = 0
Method: For each condition, samples were staged at ambient and refrigerated conditions. Samples were analyzed for % assay/degs, appearance, reconstitution time, pH, and compared to T=0. The structures of the key impurities/metabolites are shown below.

[2] = In use testing of reconstituted solutions in IV bags and IV tubings; type: physicochemical
Text: The IV bags and IV tubings were sampled over time and tested for % assay/degradation.

[3] = test system: SARS-CoV2-Nano viruses; experiment: SARS-CoV-2 antiviral screening (A549-hACE2 cells, Nano luciferase); type: cell-based; conditions: Severe acute respiratory syndrome coronavirus 2, 48 h
[4] = in vivo; parameters: species or system African Green Monkeys; conditions: monkey, iv, 10 mg/kg
[5] = Nebulizer performance (PARI LC Sprint jet nebulizer); type: physicochemical; conditions: 5 mg/mL Formula Ia, 15% w/v SBECD, 8 mL charge; collected aerosol and residual solution
[6] = in vivo; conditions: both, monkey, inhaled or intranasal
Method: The average deposited dose was calculated at 0.168 mg/kg and 0.536 mg/kg, respectively. Plasma, peripheral blood mononuclear cells (PBMCs), trachea, bronchi, lung lobe, liver, kidney, nasal mucosa and nasopharyngeal mucosa samples were collected in this study.

## CCC(CC)COC(=O)[C@H](C)N[P@](=O)(OC[C@H]1O[C@@](C#N)(c2ccc3c(N)ncnn23)[C@H](O)[C@@H]1O)Oc1ccccc1 [Formula Ia, (S)-2-ethylbutyl 2-(((S)-(((2R,3S,4R,5R)-5-(4-aminopyrrolo[2,1-f][1,2,4]triazin-7-yl)-5-cyano-3,4-dihydroxytetrahydrofuran-2-yl)methoxy)(phenoxy)phosphoryl)amino)propanoate]
[1]; pH 3.5, Ambient, 8 h
  % assay/degs, difference from T = 0: 0.2%
  Total degs, difference from T = 0: 0.0%
  pH, difference from T = 0: 0.0
[1]; pH 3.5, Ambient, 24 h
  % assay/degs, difference from T = 0: 0.6%
  Total degs, difference from T = 0: 0.0%
  pH, difference from T = 0: 0.0
[1]; pH 3.5, Ambient, 48 h
  % assay/degs, difference from T = 0: 0.3%
  Total degs, difference from T = 0: 0.1%
  pH, difference from T = 0: 0.0
[1]; pH 3.5, Ambient, 72 h
  % assay/degs, difference from T = 0: 0.2%
  Total degs, difference from T = 0: 0.1%
  pH, difference from T = 0: −0.1
[1]; pH 3.5, Ambient, 96 h
  % assay/degs, difference from T = 0: 0.0%
  Total degs, difference from T = 0: 0.1%
  pH, difference from T = 0: 0.0
[1]; pH 3.5, Ambient, 168 h
  % assay/degs, difference from T = 0: 0.2%
  Total degs, difference from T = 0: 0.2%
  pH, difference from T = 0: 0.0
[1]; pH 3.5
  % assay/degs: 99.1%
  Total degs: 0.1%
  pH: 3.5
[1]; pH 3.8, 2-8° C., 7.2 h
  % assay/degs, difference from T = 0: −0.2%
  Total degs, difference from T = 0: 0.0%
  pH, difference from T = 0: −0.1
[1]; pH 3.8, 2-8° C., 24 h
  % assay/degs, difference from T = 0: 0.3%
  Total degs, difference from T = 0: 0.0%
  pH, difference from T = 0: 0.0
[1]; pH 3.8, 2-8° C., 96 h
  % assay/degs, difference from T = 0: 0.1%
  Total degs, difference from T = 0: 0.0%
  pH, difference from T = 0: −0.1
[1]; pH 3.8, 2-8° C., 168 h
  % assay/degs, difference from T = 0: 0.1%
  Total degs, difference from T = 0: 0.0%
  pH, difference from T = 0: −0.1
[1]; pH 3.8, Ambient, 7.2 h
  % assay/degs, difference from T = 0: 0.0%
  Total degs, difference from T = 0: 0.0%
  pH, difference from T = 0: 0.0
[1]; pH 3.8, Ambient, 24 h
  % assay/degs, difference from T = 0: 0.4%
  Total degs, difference from T = 0: 0.0%
  pH, difference from T = 0: 0.0
[1]; pH 3.8, Ambient, 96 h
  % assay/degs, difference from T = 0: 0.0%
  Total degs, difference from T = 0: 0.1%
  pH, difference from T = 0: −0.1
[1]; pH 3.8, Ambient, 168 h
  % assay/degs, difference from T = 0: 0.0%
  Total degs, difference from T = 0: 0.1%
  pH, difference from T = 0: −0.1
[1]; pH 3.8
  % assay/degs: 98.7%
  Total degs: 0.1%
  pH: 3.8
[1]; pH 4.0, 2-8° C., 7.2 h
  % assay/degs, difference from T = 0: 0.0%
  Total degs, difference from T = 0: 0.0%
  pH, difference from T = 0: 0.0
[1]; pH 4.0, 2-8° C., 24 h
  % assay/degs, difference from T = 0: 0.3%
  Total degs, difference from T = 0: 0.0%
  pH, difference from T = 0: 0.0
[1]; pH 4.0, 2-8° C., 96 h
  % assay/degs, difference from T = 0: 0.2%
  Total degs, difference from T = 0: 0.0%
  pH, difference from T = 0: 0.0
[1]; pH 4.0, 2-8° C., 168 h
  % assay/degs, difference from T = 0: 0.6%
  Total degs, difference from T = 0: 0.0%
  pH, difference from T = 0: −0.1
[1]; pH 4.0, Ambient, 7.2 h
  % assay/degs, difference from T = 0: 0.3%
  Total degs, difference from T = 0: 0.0%
  pH, difference from T = 0: 0.0
[1]; pH 4.0, Ambient, 24 h
  % assay/degs, difference from T = 0: 0.3%
  Total degs, difference from T = 0: 0.0%
  pH, difference from T = 0: 0.0
[1]; pH 4.0, Ambient, 96 h
  % assay/degs, difference from T = 0: 0.0%
  Total degs, difference from T = 0: 0.1%
  pH, difference from T = 0: 0.0
[1]; pH 4.0, Ambient, 168 h
  % assay/degs, difference from T = 0: −0.2%
  Total degs, difference from T = 0: 0.1%
  pH, difference from T = 0: −0.1
[1]; pH 4.0
  % assay/degs: 98.6%
  Total degs: 0.1%
  pH: 4.0
[2]; 0 h, 0.3 mg/mL
  Total degradation: 0.2 % w/w
[2]; 0 h, 2 mg/mL
  Total degradation: 0.2 % w/w
[2]; 4 h, 0.3 mg/mL
  Total degradation: 0.2 % w/w
[2]; 4 h, 2 mg/mL
  Total degradation: 0.2 % w/w
[2]; 6 h, 0.3 mg/mL
  Total degradation: 0.2 % w/w
[2]; 6 h, 2 mg/mL
  Total degradation: 0.2 % w/w
[2]; 8 h, 0.3 mg/mL
  Total degradation: 0.2 % w/w
[2]; 8 h, 2 mg/mL
  Total degradation: 0.2 % w/w
[2]; 24 h, 0.3 mg/mL
  Total degradation: 0.2 % w/w
[2]; 24 h, 2 mg/mL
  Total degradation: 0.2 % w/w
[2]; 48 h, 0.3 mg/mL
  Total degradation: 0.2 % w/w
[2]; 48 h, 2 mg/mL
  Total degradation: 0.2 % w/w
[3]
  EC50: 110 nM
[4]
  AUC(0-t): 7.26 µM·h
[5]
  change in % peak area for Formula Ia or its identified impurities after nebulization: No significant change
[6]; 0.168 mg/kg
  AUC(0-t): 0.023 ± 0.008 µM·h
  Cmax: 39 ± 14 nM
  Tmax: 0.52 h
[6]; 0.536 mg/kg
  AUC(0-t): 0.146 ± 0.045 µM·h
  Cmax: 101 ± 19 nM
  Tmax: 1.53 h
